According to US9616009B2, “Composition containing at least one C7 sugar for alopecia treatment, cosmetic treatment of hair and nails, and care of hair, eyelashes or nails” (LABORATOIRES EXPANSCIENCE, priority 2009, dated 2017):

Assays:
IL-1β = IL-1β release (ELISA) by keratinocytes stressed with PMA; assay type: cell-based, human
Protocol: (§1) We evaluated the capacity to modulate the inflammatory response of the avocado sugars obtained according to Example 1, hereafter called AV119, in human primary keratinocytes stressed with PMA (phorbol myristic acetate).
(§2) At day 0 (D0), normal human epidermal keratinocytes (NHEK) are seeded in hydrocortisone-free KGM2 medium.
(§3) At subconfluence (at D1), the NHEK are rinsed with PBS and then pretreated with 0.005% and 0.05% avocado sugars AV119 or 0.1 μM dexamethasone (positive control) (Sigma, product D4902) in hydrocortisone-free KGM2 medium.
(§4) Twenty-four hours later, the NHEK are treated overnight with 10 μg/ml PMA (phorbol myristate acetate).
(§5) After incubation, the culture supernatants are collected and stored at −80° C. awaiting the cytokine (IL-1β, TNF-α, IL-8) ELISA (R&D Systems kits).
(§6) In parallel, the number of living cells is determined by a neutral red test.
(§7) The quantity of cytokine assayed for each condition (concentration in pg/ml, or OD450) is reduced to the number of living cells by dividing by the OD540 value obtained at the end of the neutral red test.
(§8) The results are compared statistically using a one way ANOVA followed by a Tukey's test.

TNF-α [1] = assay: TNF-α release (ELISA) by keratinocytes stressed with PMA; assay type: cell-based, human
Protocol: as §1, §2, §3, §4, §5, §6, §7, §8

IL-8 [2] = assay: IL-8 release (ELISA) by keratinocytes stressed with PMA; assay type: cell-based, human
Protocol: as §1, §2, §3, §4, §5, §6, §7, §8

[3] = tested on: tumor cells of Ehrlich's ascites carcinoma; conditions: perseitol associated with a potassium ion; Shibuya et al., Pure Appl. Chem. 1999; cited from earlier work
IL-8 [4] = assay: IL-8 protein production (ELISA) in keratinocytes stressed with LPS; assay type: cell-based, human; conditions: keratinocytes stressed with 10 μg/ml LPS 24 h: LPS alone, or pretreated with 0.1% AV119 24 h, or with 30 μM calpain; culture supernatant
Protocol: (§9) We evaluated the capacity to modulate the inflammatory response of the avocado sugars obtained according to Example 1, hereafter called AV119, in human primary keratinocytes stressed with LPS (lipopolysaccharide).
(§10) The cells were pretreated with 0.1% AV119 for 24 h and successively with 10 μg/ml of LPS for 24 h. In another series of experiments, the keratinocytes were pretreated with 30 μM calpain and successively with 10 μg/ml LPS for 24 h. Calpain is a specific inhibitor of the transcription factor NFκB, a key element of the inflammatory cascade. A control of keratinocytes treated only with AV119 was prepared.
(§11) Expression of mRNA for the cytokines IL-6, IL-8, IL-1α and TNF-α was analyzed by real-time PCR and protein production and release were analyzed by ELISA in the culture supernatants. Moreover, ICAM-1 expression and production were also analyzed. Finally, IκB phosphorylation was analyzed to measure the activation of transcription factor NFκB.
(§12) A standard protocol was used for the ELISA tests (Phoenix Pharmaceuticals, Inc.).

ICAM-1 [5] = assay: ICAM-1 protein production (ELISA) in keratinocytes stressed with LPS; assay type: cell-based, human; conditions: keratinocytes stressed with 10 μg/ml LPS 24 h: LPS alone, or with 1% AV119, or with 30 μM calpain
Protocol: as §9
as §10, with “The cells were pretreated with 0.1% AV119 for 24 h and successively with 10 μg/ml of LPS for 24 h.” left out
as §11, §12

TNF-α [6] = assay: TNF-α protein production (ELISA) in keratinocytes stressed with LPS; assay type: cell-based, human; conditions: keratinocytes stressed with 10 μg/ml LPS 24 h: LPS alone, or pretreated with 0.1% AV119 24 h, or with 30 μM calpain; culture supernatant
Protocol: as §9, §10, §11, §12

ICAM-1 [7] = assay: ICAM-1 gene expression (mRNA, real-time PCR) in keratinocytes stressed with LPS; assay type: cell-based, human; conditions: keratinocytes stressed with 10 μg/ml LPS 24 h: LPS alone, or with 30 μM calpain
Protocol: as §9
as §10, with “The cells were pretreated with 0.1% AV119 for 24 h and successively with 10 μg/ml of LPS for 24 h.” left out
as §11
Total RNA was extracted with the High Pure RNA Isolation Kit (Roche Diagnostics) according to the manufacturer's recommendations. […] The melting curve was analyzed at the end of each amplification to ensure the absence of non-specific reaction products. Quantification rests on the measure of threshold cycles (CT), which are measured at the beginning of the exponential phase of the reaction and on the normalization of the internal standard curve obtained with the reference gene beta-actin.

IL-6 [8] = assay: IL-6 gene expression (mRNA, real-time PCR) in keratinocytes stressed with LPS; assay type: cell-based, human; conditions: keratinocytes stressed with 10 μg/ml LPS 24 h: LPS alone, or pretreated with 0.1% AV119 24 h, or with 30 μM calpain
Protocol: as §9, §10, §11
(§13) Total RNA was extracted with the High Pure RNA Isolation Kit (Roche Diagnostics) according to the manufacturer's recommendations. […] The melting curve was analyzed at the end of each amplification to ensure the absence of non-specific reaction products. […]

IL-6 [9] = assay: IL-6 protein production (ELISA) in keratinocytes stressed with LPS; assay type: cell-based, human; conditions: keratinocytes stressed with 10 μg/ml LPS 24 h: LPS alone, or pretreated with 0.1% AV119 24 h, or with 30 μM calpain; culture supernatant
Protocol: as §9, §10, §11, §12

[10] = tested on: IκB phosphorylation / transcription factor NFκB; assay: IκB phosphorylation (Western blot) as measure of NFκB activation in keratinocytes stressed with LPS; assay type: cell-based, human; conditions: keratinocytes stressed with 10 μg/ml LPS; pretreated with 0.1% AV119 or 30 μM calpain
Protocol: as §9, §10, §11
Proteins were extracted from the keratinocytes by cold homogenization in lysis buffer (50 mM HEPES pH 7.5, 150 mM NaCl, 1% glycerol, 1% Triton, 1.5 mM MgCl2, 5 mM EGTA) supplemented with 20 mM sodium pyrophosphate, 10 mM sodium orthovanadate and 25 mM NaF and protease inhibitors (aprotinin, phenylmethanesulfonyl fluoride (PMSF)). Protein level was quantified by the Bradford method. […]

IL-1α [11] = assay: IL-1α protein production (ELISA) in keratinocytes stressed with LPS; assay type: cell-based, human; conditions: keratinocytes stressed with 10 μg/ml LPS 24 h: LPS alone, or pretreated with 0.1% AV119 24 h, or with 30 μM calpain; culture supernatant
Protocol: as §9, §10, §11, §12

TNF-α [12] = assay: TNF-α gene expression (mRNA, real-time PCR) in keratinocytes stressed with LPS; assay type: cell-based, human; conditions: keratinocytes stressed with 10 μg/ml LPS 24 h: LPS alone, or pretreated with 0.1% AV119 24 h, or with 30 μM calpain
Protocol: as §9, §10, §11, §13

IL-8 [13] = assay: IL-8 gene expression (mRNA, real-time PCR) in keratinocytes stressed with LPS; assay type: cell-based, human; conditions: keratinocytes stressed with 10 μg/ml LPS 24 h: LPS alone, or pretreated with 0.1% AV119 24 h, or with 30 μM calpain
Protocol: as §9, §10, §11, §13

IL-1α [14] = assay: IL-1α gene expression (mRNA, real-time PCR) in keratinocytes stressed with LPS; assay type: cell-based, human; conditions: keratinocytes stressed with 10 μg/ml LPS 24 h: LPS alone, or pretreated with 0.1% AV119 24 h, or with 30 μM calpain
Protocol: as §9, §10, §11, §13

[15] = 0.1 μM dexamethasone, in relation to PMA
[16] = NHEK pretreated 24 h with 0.1 μM dexamethasone, then 10 μg/ml PMA overnight
[17] = NHEK, 10 μg/ml PMA overnight, PMA alone
[18] = PMA 10 μg/ml alone, increase in relation to the untreated control (without PMA)

C[C@@H]1C[C@H]2[C@@H]3CCC4=CC(=O)C=C[C@]4(C)[C@@]3(F)[C@@H](O)C[C@]2(C)[C@@]1(O)C(=O)CO [Dexamethasone, dexamethasone]
IL-1β release, % in relation to the control (IL-1β; [15]): −70% | IL-1β pg/ml/OD450 (mean ± SD) (IL-1β; [16]): 3.232 ± 0.329 pg/ml/OD450 | TNF-α release, % in relation to the control (TNF-α [1]; [15]): −44% | TNF-α pg/ml/OD450 (mean ± SD) (TNF-α [1]; [16]): 0.328 ± 0.007 pg/ml/OD450 | IL-8 release, % in relation to the control (IL-8 [2]; [15]): −55% | IL-8 pg/ml/OD450 (mean ± SD) (IL-8 [2]; [16]): 0.790 ± 0.089 pg/ml/OD450

CCCCCCCCCCCCCC(=O)O[C@@H]1[C@@H](C)[C@@]2(O)[C@@H](C=C(CO)C[C@]3(O)C(=O)C(C)=C[C@@H]23)[C@@H]2C(C)(C)[C@]12OC(C)=O [PMA, phorbol myristate acetate]
IL-1β pg/ml/OD450 (mean ± SD) (IL-1β; [17]): 10.930 ± 0.190 pg/ml/OD450 | IL-1β release, % in relation to the control (IL-1β; [18]): 1399% | TNF-α pg/ml/OD450 (mean ± SD) (TNF-α [1]; [17]): 0.584 ± 0.079 pg/ml/OD450 | TNF-α release, % in relation to the control (TNF-α [1]; [18]): 1091% | IL-8 pg/ml/OD450 (mean ± SD) (IL-8 [2]; [17]): 1.765 ± 0.305 pg/ml/OD450 | IL-8 release, % in relation to the control (IL-8 [2]; [18]): 1017%

OCC(O)C(O)C(O)C(O)C(O)CO (stereo not drawn) [perseitol, Perseitol]
incorporation of 3H-leucine in tumor cells [3]: inhibits the incorporation of 3H-leucine

lipopolysaccharide [LPS]
IL-8 protein production (ELISA) (IL-8 [4]): 85 | ICAM-1 protein production (ELISA) (ICAM-1 [5]): 85 | TNF-α protein production (ELISA) (TNF-α [6]): 96.0 | ICAM-1 gene expression (mRNA, real-time PCR) (ICAM-1 [7]): 53.2 | IL-6 gene expression (mRNA, real-time PCR) (IL-6 [8]): 54.5 | IL-6 protein production (ELISA) (IL-6 [9]): 76 | IκB phosphorylation (activation of transcription factor NFκB), Western blot [10]: strongly induced IκB phosphorylation | IL-1α protein production (ELISA) (IL-1α [11]): 82 | TNF-α gene expression (mRNA, real-time PCR) (TNF-α [12]): 68.0 | IL-8 gene expression (mRNA, real-time PCR) (IL-8 [13]): 54.1 | IL-1α gene expression (mRNA, real-time PCR) (IL-1α [14]): 71.5
